# What was measured:
# [1] = Dynamic moisture sorption (DMS) assessment; assay type: physicochemical; settings: for crystalline form after the DMS experiment (by PXRD, DSC, TGA): 5% RH to 90% RH adsorption/desorption, 25° C.; for moisture picked up during the adsorption segment (DMS): 5% RH to 90% RH, isothermal 25° C., desorption matches adsorption, no hysteresis
# Description: Dynamic moisture sorption (DMS) measurements were performed for each crystalline form using a VTI atmospheric microbalance, SGA-100 system (VTI Corp., Hialeah, Fla. 33016). A weighed sample was used and the humidity was set at the ambient value at the start of the analysis. The DMS analysis consisted of a scan rate of 5% RH/step over the full humidity range of 5% relative humidity (RH) to 90% RH. The DMS run was performed isothermally at 25° C.
# [2] = Slurry conversion of mixed anhydrous Form I and Form II in MTBE:water (95:5); assay type: physicochemical; settings: equal amounts Form I and Form II, room temperature, three days
# Description: Equal amounts (˜50 mg) of anhydrous Form I and anhydrous Form II were weighed out and physically mixed in a vial with a spatula. A solution of MTBE:water (95:5) was added to this solid mixture and stirred to form a suspension. The suspension was stirred at room temperature for three days and filtered through a filter paper. The solid residue was allowed to dry under ambient conditions and analyzed with powder X-ray diffractometry and DSC.
"crystalline form after the DMS experiment (by PXRD, DSC, TGA) [1]","moisture uptake between 60% RH and 65% RH (DMS adsorption segment) ([1]; gradual uptake until 60% RH, isotherm flat 65% RH to 90% RH, moisture not lost on desorption)",anhydrous Form II content of the filtered solid (PXRD) [2] [%],form conversion under slurry conditions [2],moisture picked up during the adsorption segment (DMS) [1],SMILES
converted to the monohydrate form,rapid,> 95,converted to anhydrous Form II,–,"CS(=O)(=O)C[C@@H](Oc1ccc(C(F)(F)F)cc1)[C@H]1CCNC1 [anhydrous Form I, (S)-3-[(S)-2-methanesulfonyl-1-(4-trifluoromethylphenoxy)ethyl]pyrrolidine]"
remains as the monohydrate form,–,–,–,less than 1 % by weight,"CS(=O)(=O)C[C@@H](Oc1ccc(C(F)(F)F)cc1)[C@H]1CCNC1 [monohydrate, (S)-3-[(S)-2-methanesulfonyl-1-(4-trifluoromethylphenoxy)ethyl]pyrrolidine]"
remains as Form II,–,–,–,less than 1 % by weight,"CS(=O)(=O)C[C@@H](Oc1ccc(C(F)(F)F)cc1)[C@H]1CCNC1 [anhydrous Form II, (S)-3-[(S)-2-methanesulfonyl-1-(4-trifluoromethylphenoxy)ethyl]pyrrolidine]"
